Values quoted from earlier work in patent publication US20110190376A1, “RNAi-RELATED INHIBITION OF TNFa SIGNALING PATHWAY FOR TREATMENT OF MACULAR EDEMA” (ALCON RESEARCH, LTD., priority 2007, published 2011).

What was measured:
[1] = tested on: severe diabetic macular edema; details: eyes that had severe diabetic macular edema
[2] = tested on: refractory chronic cystoid macular edema (CME)
macular edema = details: patients also suffering from posterior uveitis

infliximab
eyes with anatomic and functional improvement [1]: four of six
eyes with complete regression of refractory chronic cystoid macular edema [2]: 8 of 14
resolution of macular edema (macular edema): caused macular edema to resolve in two patients
